Format in all cases: cell-based
The subject of assay [1] is 22Rv1 cells. Briefly: Prostate cancer cell line growth inhibition assay, 22Rv1. The settings on record: Homo sapiens, 22Rv1, 72 h; read-out: AR positive 22Rv1 GI50. The method, then:
(§1) Prostate Cancer Cell Line Growth Inhibition Assays: The PC-3, DU-145, LNCaP, C4-2, and 22Rv1 PC cell line growth inhibition assays have been described previously (Fancher et al., Assay Drug Dev Technol. 2016, 14:453-477; Fancher et al., Assay Drug Dev Technol. 2019, 17:364-386). On day 1, each PC cell line was harvested, counted, and seeded into two 384-well assay plates, a time zero (T0) and a time 72 h (T72) plate. PC cell lines were all seeded at 1,000 cells per well in 45 μL of tissue culture media in uncoated white clear bottom 384-well assay plates (VWR, #82050-076) using a Matrix electronic multichannel pipette (Thermo Fisher Scientific, Waltham, MA) and cultured overnight at 37° C., 5% CO2, and 95% humidity. On day 2, 25 μL of the CellTiter-Glo® (CTG) (Promega Corporation, Madison, WI) detection reagent was dispensed into the wells of the TO assay plate using a Matrix electronic multichannel pipette, and the RLUs were captured on the SpectraMax® M5e (Molecular Devices LLC, Sunnyvale, CA) microtiter plate reader. Also on day 2, 5 μL of compounds were transferred into the test wells of the T72 384-well assay plates which were returned to the incubator for 72 h. Control wells received DMSO alone. On day 5, 25 μL of the CTG detection reagent was dispensed into the wells of the T72 assay plate using a Matrix electronic multichannel pipette, and the RLU's were captured on the SpectraMax® M5e microtiter plate reader platform.
(§2) For the 96-well AR-LBD H^3-DHT radioligand binding assay, eight minimum and maximum plate control wells were utilized to normalize the data. […] To normalize the 72 h compound exposure PC growth inhibition data, the signals from the compound treated wells were processed and expressed as % of the T72 DMSO plate controls. IC50 and GI50 values for each of the bioassays were calculated using GraphPad Prism 9 software to plot and fit data to curves using the Sigmoidal dose response variable slope equation Y=Bottom+[Top-Bottom]/[1+10^(Log EC50−X)*HillSlope].

The test system of assay [2] is PSA secretion in C4-2 conditioned media. Kind of assay: Dot blot of PSA secretion by C4-2 cells. The settings on record: C4-2 cells, 20 μM 3 h, ±10 nM DHT 24 h. The method, then: To determine PSA secretion levels, C4-2 cells were seeded at 1.4×10^5 cells/well in 12-well plates and treated as described above for PSA cell expression experiments. […] 500 μL of conditioned media supernatant was added to the wells of 96-well to Bio-blot apparatus (BioRad, Hercules, CA) containing a nitrocellulose membrane and was allowed to pass through and attach to the membrane under gravity for 3-4 h at room temperature. The membrane was washed 1× with 500 μL TBS under vacuum, blocked with 1% BSA in TBST for 1 h, and then incubated overnight at 4° C. with the primary rabbit anti-hPSA antibody (Cell Signaling, Danvers, MA) diluted 1:1000 in TBST plus 1% BSA. Dot blots were washed 3× in 10 mL of TBST for 10 min, then incubated for 1 h with secondary goat anti-rabbit-IgG HRP conjugated antibody (Invitrogen, Carlsbad, CA) diluted 1:10,000 in TBST plus 1% Bovine Serum Albumin (BSA), washed 3× with […] of TBST for 10 min, and then developed with Pierce ECL western blotting substrate. Images of ECL dot blots were acquired on an iBright™ 1500 imaging system and quantified by iBright™ image analysis software (ThermoFisher Scientific, Waltham, MA).

Assay [3] has as its target T1, AR-LBD and SRC1 (Homo sapiens, UniProt P10275).
T1 construct: AR-LBD amino acids 658-919 expressed as a fusion protein with Gal4-DBD; expressed in transfected cells; host or cells: HEK 293, transient co-transfection
T1 sequence (P10275 658-919): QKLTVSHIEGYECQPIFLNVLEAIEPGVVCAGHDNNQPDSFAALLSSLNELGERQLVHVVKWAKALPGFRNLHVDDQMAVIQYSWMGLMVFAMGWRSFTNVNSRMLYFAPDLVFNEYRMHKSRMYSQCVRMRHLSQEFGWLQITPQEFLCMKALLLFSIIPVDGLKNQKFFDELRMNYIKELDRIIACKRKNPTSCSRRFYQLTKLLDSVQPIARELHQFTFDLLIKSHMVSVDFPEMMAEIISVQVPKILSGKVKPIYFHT
Kind of assay: AR-SRC1 mammalian 2-hybrid assay. Particulars: HEK 293 cells; read-out: Inhibition DHT-induced AR-SRC1 mammalian 2 hybrid assay IC50. The text has this:
(§3) TIF2 and SRC1 Mammalian 2-Hybrid Assays: The 5×GAL4-TATA-luciferase reporter plasmid was a gift from Dr. Richard Maurer from the Oregon Health and Science University (Gonzalez et al., Cell 1989, 59:675-80), and constructs pGAL4-hAR-658-919 (AR-LBD amino acids 658-919 expressed as a fusion protein with Gal4-DBD) (Askew et al., J Biol Chem 2007, 282:25801-16), pVP16-SRC1 (full-length SRC1 expressed as a fusion with VP16 activation domain) (He et al., J Biol Chem 1999, 274:37219-25) and pVP16-Empty vectors were kindly provided to us by Dr. Elizabeth Wilson, from UNC Chapel Hill. pVP16-TIF2 was generated as described previously (Fancher et al., Assay Drug Dev Technol. 2019, 17:364-386). HEK 293 cells were transiently co-transfected with 5 ng of pGal4-AR-LBD, 10 ng of either pVP16-TIF2 or pVP16-SRC1, and 20 ng of the 5×Gal4-TATA-Luc reporter as described previously (Ibid.). HEK 293 cells were bulk co-transfected with the three plasmids that had been individually incubated with FuGENE® 6 transfection agent (Fugent LLC, Middleton, WI) at a 3:1 ratio for 25 min at room temperature (RT) in serum free media (SFM) and then combined with HEK 293 cells that were suspended in DMEM (Cellgro10013CV) with 2 mM L-glutamine (Invitrogen) that was supplemented with 10% fetal bovine serum, and 5,000 cells in a volume of 40 μL were seeded into the wells of white opaque 384-well assay plates (Greiner Bio-one, #781080) and cultured overnight at 37° C., 5% CO2, and 95% humidity. […] 25 μL of BrightGlo® reagent (Promega, Madison, WI) was added to the plate and the relative luminescence units (RLUs) were captured on a SpectraMax® M5e microtiter plate reader (Molecular Devices, LLC, San Jose, CA).

Assay [4] concerns the target T2, AR-LBD and TIF2 (Homo sapiens, UniProt P10275).
T2 construct: AR-LBD amino acids 658-919 expressed as a fusion protein with Gal4-DBD; expressed in transfected cells; host or cells: HEK 293, transient co-transfection
T2 sequence (P10275 658-919): T1 sequence (P10275 658-919)
Briefly: AR-TIF2 mammalian 2-hybrid assay. The settings on record: HEK 293 cells; read-out: Inhibition DHT-induced AR-TIF2 mammalian 2 hybrid assay IC50.
Description: as §3

Assay [5] has as its system C4-2 cells. Kind of assay: Prostate cancer cell line growth inhibition assay, C4-2. The settings on record: C4-2, 72 h; read-out: AR positive C4-2 GI50. The method, then: as §1, §2

The structures appear in SMILES notation. Entries after “also recorded” stand apart in the source; their conditions may differ.

On to `Cc1nsc(NC(=O)N2CCC(Sc3ccccc3C)CC2)n1` [Compound S2-6], for which the figures for the GI50 in assay [1] and in assay [5] were 17.9 µM and 8.66 µM, respectively. The “Endogenous and DHT-enhanced PSA secretion” value in assay [2] is listed as “substantially reduced; also recorded: inhibition”. Besides, the IC50 in assay [3] was determined as 0.29 µM; in assay [4] it was 0.05 µM.
The corresponding values for `Cc1ccccc1-c1cc(O)c2c(c1)CN(c1nc(C(N)=O)cs1)CCO2` [Compound S1-1] are 42.5 µM, 30.7 µM, “substantially reduced; also recorded: inhibition”, 0.38 µM and 0.91 µM.
The corresponding values for `Cc1c(-c2ccccc2F)[nH]c2ccc(CNC(=O)CCc3cn[nH]c3)cc12` [Compound S3-11] are 13.2 µM, 6.92 µM, “substantially reduced; also recorded: inhibition”, 0.6 µM and 0.89 µM.

Usually GI50 stands for the concentration at which growth is held to half of that of the control. By IC50 is commonly meant the concentration that inhibits the measured activity by half.

The values above are taken from US20260083751A1, “ALLOSTERIC MODULATORS OF ANDROGEN RECEPTOR COACTIVATOR RECRUITMENT FOR CRPC THERAPY” (University of Pittsburgh – Of the Commonwealth System of …, priority 2022, published 2026).
